According to US20250115581A1, “SUBSTITUTED PIPERIDINES AS CK1A DEGRADERS” (Monte Rosa Therapeutics, Inc., priority 2022, published 2025):

Tests used:
CW2 = experiment: Growth inhibition, CyQUANT Direct Cell Proliferation Assay, CW2; assay type: cell-based; details: Homo sapiens, CW-2; CW2 cells, 120 to 168 hours
Experimental: (§1) SKCO1, LS180, and LS174T cell lines were purchased from ATCC. CW2 cell line was purchased from Riken. GP2D cell line was purchased from Sigma/ECACC. All cell lines were cultured in manufacturer's recommended media at 37° C., 5% CO2. Briefly, cells were suspended in 200 μL of media and seeded at 300 to 1,800 cells per well in tissue culture treated 96-well plates with black walls and clear bottom. Plates were incubated overnight and initial (TO) read was performed the following day using CyQUANT Direct Cell Proliferation Assay Kit (Thermo Fisher Scientific) according to manufacturer's protocol. All compounds were solubilized in DMSO and prepared at 3-fold serial dilution, using 9 points starting at 30 μM as highest concentration, administered to cells and incubated for 120 to 168 hours, at which point CyQUANT assay measurement was performed using Acumen Cellista instrument (Ex/Em 480/520 nm). Media-only wells were used as blank, and 0.3% DMSO was used as DMSO-treated cell control. Growth inhibition (percent response) was calculated using the following formula in Excel: “=if ([Compound treated Day N]>[Untreated Day 0, AVG], ([Compound treated Day N]− [Untreated Day 0, AVG])/([Untreated Day N]−[Untreated Day 0, AVG])*100, ([Compound Treated Day N]−[Untreated Day 0, AVG])/([Untreated Day 0, AVG])*100)”. GI50 is the response corresponding to the 50% of untreated control.
(§2) GI50 data are reported in Tables 4a, 4b, 4c, 4d, and 4e for compounds in Table 1. In Tables 4a, 4b, 4c, 4d, and 4e below, According to the code, A represents a GI50 value of ≤0.1 μM, B represents a GI50 value >0.1 μM and ≤1 μM, C represents an GI50 value >1 μM.

CRBN/DDB1 = CRBN/DDB1 (Homo sapiens, UniProt Q96SW2); experiment: HTRF binding assay (displacement of Cy5-thalidomide probe from CRBN/DDB1); details: CRBN/DDB1 2.5 nM, Cy5-Thalidomide 100 nM, 30 min; geometric mean; read-out: HTRF_Thali_Disp_DR_geo_IC50
Sequence of CRBN/DDB1 (Q96SW2 whole entry): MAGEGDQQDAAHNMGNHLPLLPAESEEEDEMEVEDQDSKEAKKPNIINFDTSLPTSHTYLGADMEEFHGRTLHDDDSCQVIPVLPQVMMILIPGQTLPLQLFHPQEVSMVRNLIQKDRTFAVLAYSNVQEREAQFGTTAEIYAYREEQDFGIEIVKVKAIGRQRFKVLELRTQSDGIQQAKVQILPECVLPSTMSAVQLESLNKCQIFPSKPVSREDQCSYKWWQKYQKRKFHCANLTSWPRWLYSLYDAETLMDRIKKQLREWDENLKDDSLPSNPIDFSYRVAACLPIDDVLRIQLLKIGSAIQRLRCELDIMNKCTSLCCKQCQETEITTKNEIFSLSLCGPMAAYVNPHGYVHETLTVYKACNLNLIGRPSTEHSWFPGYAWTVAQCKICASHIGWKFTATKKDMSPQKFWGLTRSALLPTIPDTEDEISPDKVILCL
Sequence of CRBN/DDB1 (Q16531 whole entry partner): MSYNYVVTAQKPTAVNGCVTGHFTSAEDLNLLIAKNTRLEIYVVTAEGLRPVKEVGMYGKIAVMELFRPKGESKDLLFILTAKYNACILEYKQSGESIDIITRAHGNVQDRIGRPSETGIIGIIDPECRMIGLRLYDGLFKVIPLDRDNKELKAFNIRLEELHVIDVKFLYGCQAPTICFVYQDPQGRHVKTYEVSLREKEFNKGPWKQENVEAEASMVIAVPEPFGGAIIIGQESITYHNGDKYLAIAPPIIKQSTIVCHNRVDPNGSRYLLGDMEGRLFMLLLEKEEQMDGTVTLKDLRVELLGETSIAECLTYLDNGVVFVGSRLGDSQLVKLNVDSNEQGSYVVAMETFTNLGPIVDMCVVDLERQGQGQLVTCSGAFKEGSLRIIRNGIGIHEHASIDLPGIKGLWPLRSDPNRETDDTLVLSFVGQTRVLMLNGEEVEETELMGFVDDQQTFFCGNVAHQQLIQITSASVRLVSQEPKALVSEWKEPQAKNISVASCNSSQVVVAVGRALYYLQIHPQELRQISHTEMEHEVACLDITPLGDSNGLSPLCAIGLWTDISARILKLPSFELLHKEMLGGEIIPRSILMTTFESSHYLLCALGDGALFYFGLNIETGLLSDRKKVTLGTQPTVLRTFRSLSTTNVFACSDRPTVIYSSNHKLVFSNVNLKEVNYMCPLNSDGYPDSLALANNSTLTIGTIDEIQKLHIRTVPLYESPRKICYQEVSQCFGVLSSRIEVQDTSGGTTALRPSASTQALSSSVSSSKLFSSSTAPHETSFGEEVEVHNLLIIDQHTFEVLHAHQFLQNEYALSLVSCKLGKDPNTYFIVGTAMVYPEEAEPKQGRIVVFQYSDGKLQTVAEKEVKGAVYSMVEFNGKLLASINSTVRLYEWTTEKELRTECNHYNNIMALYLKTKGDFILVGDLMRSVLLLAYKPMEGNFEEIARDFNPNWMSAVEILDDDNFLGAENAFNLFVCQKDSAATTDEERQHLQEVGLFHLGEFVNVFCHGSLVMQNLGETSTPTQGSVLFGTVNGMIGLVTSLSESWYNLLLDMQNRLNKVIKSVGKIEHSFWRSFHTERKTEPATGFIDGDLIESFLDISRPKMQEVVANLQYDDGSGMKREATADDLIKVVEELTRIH
Summary of the method: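 HTRF displacement of Cy5-thalidomide probe (100 nM) from His-tagged CRBN/DDB1 (2.5 nM) with anti-His terbium cryptate, in HEPES/NaCl/TCEP/EDTA/Tween20 buffer; 10-point 1:3 series, 30 min at ambient temperature. 665/620 nm ratio fitted 4-parameter logistic for IC50; Ki via Cheng-Prusoff.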

SKCO1 = experiment: Growth inhibition, CyQUANT Direct Cell Proliferation Assay, SKCO1; assay type: cell-based; details: Homo sapiens, SK-CO-1; SKCO1 cells, 120 to 168 hours
Experimental: as §1, §2

LS174T = experiment: Growth inhibition, CyQUANT Direct Cell Proliferation Assay, LS174T; assay type: cell-based; details: Homo sapiens; LS174T cells, 120 to 168 hours
Experimental: as §1, §2

GP2D = experiment: Growth inhibition, CyQUANT Direct Cell Proliferation Assay, GP2D; assay type: cell-based; details: GP2D cells, 120 to 168 hours
Experimental: as §1, §2

C[C@@H]1CN(c2ccc3c(c2)CN(C2CCC(=O)NC2=O)C3=O)C(=O)N1c1ccc(C2CC2)cc1 (stereo partly drawn) [Compound 125, 3-(5-((R)-3-(4-cyclopropylphenyl)-4-methyl-2-oxoimidazolidin-1-yl)-1-oxoisoindolin-2-yl)piperidine-2,6-dione]
GI50 (CW2): ≤ 100 nM
IC50 (CRBN/DDB1): 100 to 1000 nM
GI50 (SKCO1): ≤ 100 nM
GI50 (LS174T): ≤ 100 nM
GI50 (GP2D): 100 to 1000 nM

O=C1CCC(N2Cc3cc(N4CCN(c5ccccc5)C4=O)ccc3C2=O)C(=O)N1 (stereo not drawn) [Compound 101, 3-(1-oxo-5-(2-oxo-3-phenylimidazolidin-1-yl)isoindolin-2-yl)piperidine-2,6-dione]
GI50 (CW2): 100 to 1000 nM
IC50 (CRBN/DDB1): 100 to 1000 nM
GI50 (SKCO1): 100 to 1000 nM
GI50 (LS174T): > 1000 nM
GI50 (GP2D): > 1000 nM

C[C@@H]1CN(c2ccc3c(c2)CN(C2CCC(=O)NC2=O)C3=O)C(=O)N1c1ccccc1 (stereo partly drawn) [Compound 107, 3-(5-((R)-4-methyl-2-oxo-3-phenylimidazolidin-1-yl)-1-oxoisoindolin-2-yl)piperidine-2,6-dione]
GI50 (CW2): ≤ 100 nM
IC50 (CRBN/DDB1): 100 to 1000 nM
GI50 (SKCO1): 100 to 1000 nM
GI50 (LS174T): > 1000 nM
GI50 (GP2D): 100 to 1000 nM
